Test results from PMC9259562 (Scientific Reports, 2022).
Square brackets hold non-standard residues; d marks the D form. Peptide text beside a SMILES is read from it. βAla = NCCC(=O)O

Experiments:
[1] = molecular target: Stx2a A-subunit (Escherichia phage 933W, UniProt P09385); test: biochemical; assay type: binding, Escherichia coli
[2] = test system: Stx2a cytotoxicity in Vero cells; details: 72 h

Chain of Stx2a A-subunit (P09385 23-319 limits assumed): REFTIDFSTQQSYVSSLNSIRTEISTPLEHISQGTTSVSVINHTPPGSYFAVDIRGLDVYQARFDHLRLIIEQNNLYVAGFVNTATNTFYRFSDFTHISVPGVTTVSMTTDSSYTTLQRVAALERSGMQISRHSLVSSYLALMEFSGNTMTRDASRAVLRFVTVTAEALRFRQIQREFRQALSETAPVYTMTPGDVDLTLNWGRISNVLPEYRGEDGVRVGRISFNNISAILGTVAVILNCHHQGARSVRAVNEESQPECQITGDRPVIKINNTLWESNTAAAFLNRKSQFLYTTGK

| Compound | IC50 [1] [µM] | IC50 [2] [µM] |
| --- | --- | --- |
| C[C@H](N)C(=O)N[C@@H](CCCNC(=N)N)C(=O)N[C@@H](CCCNC(=N)N)C(=O)N[C@@H](CCCNC(=N)N)C(=O)N[C@@H](CCCNC(=N)N)C(=O)N[C@@H](C)C(N)=O [AR4A-mono] (H-ARRRRA-NH2) | 2.27 | 51.6 ± 2.2 |
| CSCC[C@H](NC(=O)[C@H](C)NC(=O)[C@@H](N)CCSC)C(=O)N[C@@H](CCSC)C(=O)NCCC(=O)N[C@@H](CCCNC(=N)N)C(=O)N[C@@H](CCCNC(=N)N)C(=O)N[C@@H](CCCNC(=N)N)C(=O)N[C@@H](CCCNC(=N)N)C(=O)N[C@@H](C)C(N)=O [MMβA-mono, reference compound] (H-MAMM[βAla]RRRRA-NH2) |  | 21 ± 4 |
| C[C@H](NC(=O)[C@H](CCCNC(=N)N)NC(=O)[C@@H](N)CCCNC(=N)N)C(N)=O [R2A-mono] (H-Arg-Arg-Ala-NH2) | 132 | 66 ± 17 |
| N=C(N)NCCC[C@H](NC(=O)[C@H](CCCNC(=N)N)NC(=O)[C@@H](N)CCCNC(=N)N)C(N)=O [R3-mono] (H-Arg-Arg-Arg-NH2) | 3.68 | 78.7 ± 4.7 |
| C[C@H](NC(=O)[C@H](CCCNC(=N)N)NC(=O)[C@H](CCCNC(=N)N)NC(=O)[C@@H](N)CCCNC(=N)N)C(N)=O [R3A-mono] (H-RRRA-NH2) | 89.6 | 52.1 ± 3.5 |
| N=C(N)NCCC[C@H](NC(=O)[C@H](CCCNC(=N)N)NC(=O)[C@H](CCCNC(=N)N)NC(=O)[C@@H](N)CCCNC(=N)N)C(N)=O [R4-mono] (H-RRRR-NH2) | 0.387 | 55.4 ± 8.9 |
| C[C@H](NC(=O)[C@H](CCCNC(=N)N)NC(=O)[C@H](CCCNC(=N)N)NC(=O)[C@H](CCCNC(=N)N)NC(=O)[C@@H](N)CCCNC(=N)N)C(N)=O [R4A-mono] (H-RRRRA-NH2) |  | 56.8 ± 2.8 |
